Counter-ions that a name gives are not always drawn.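 Step 1: Grow cells in 96-well plates. Step 2: Expose to compound for 48 hours at 5 concentrations. Step 3: Interpolate endpoints linearly; if unreached, use highest concentration. Here, GI50 denotes the concentration required for 50% inhibition of growth.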 The source made the active and inactive calls. Rule as the data show it: active = GI50 up to about 1.1 µM and inactive = higher.
Experiments:
Assay in all cases: NCI-60 cell line screen, 48 h
T47D = tested on: T47D
MDA-MB-231 = tested on: MDA-MB-231
SK-MEL-2 = tested on: SK-MEL-2
HCT-15 = tested on: HCT-15
DU-145 = tested on: DU-145
UACC-257 = tested on: UACC-257
OVCAR-5 = tested on: OVCAR-5
IGROV-1 = tested on: IGROV-1
HOP-62 = tested on: HOP-62
OVCAR-8 = tested on: OVCAR-8
HCT-116 = tested on: HCT-116
A549 = tested on: A549
MCF7 = tested on: MCF7
EKVX = tested on: EKVX
SN12C = tested on: SN12C
OVCAR-3 = tested on: OVCAR-3
CCRF-CEM = tested on: CCRF-CEM
SR = tested on: SR
NCI-H522 = tested on: NCI-H522
SF-268 = tested on: SF-268

SMILES | GI50 (T47D) | GI50 (MDA-MB-231) | GI50 (SK-MEL-2) | GI50 (HCT-15) [µM] | GI50 (DU-145) | GI50 (UACC-257) | GI50 (OVCAR-5) | GI50 (IGROV-1) | GI50 (HOP-62) | GI50 (OVCAR-8) | GI50 (HCT-116) | GI50 (A549) | GI50 (MCF7) | GI50 (EKVX) | GI50 (SN12C) | GI50 (OVCAR-3) | GI50 (CCRF-CEM) | GI50 (SR) | GI50 (NCI-H522) | GI50 (SF-268)
O=C1Nc2ccccc2/C1=N/Nc1nc(-c2ccccc2)cs1 | 26.9 µM (inactive) | 28.3 µM (inactive) | 84.1 µM (inactive) | 23.1 | 35.5 µM (inactive) | 56.2 µM (inactive) | 58.3 µM (inactive) | 21.1 µM (inactive) | 18.2 µM (inactive) | 40.1 µM (inactive) | 31.9 µM (inactive) | 75.3 µM (inactive) | 27.2 µM (inactive) | 21.4 µM (inactive) | 27.1 µM (inactive) | 26.4 µM (inactive) | – | – | – | –
NC1=NC(c2ccccc2)CC(c2cc(Cl)cc(Br)c2O)=N1 (centres undefined) | – | – | 4.59 µM (inactive) | 7.64 | – | 14.7 µM (inactive) | 19.6 µM (inactive) | 14.5 µM (inactive) | 10.4 µM (inactive) | 17.1 µM (inactive) | 12.1 µM (inactive) | 14.6 µM (inactive) | 2.44 µM (inactive) | 10.1 µM (inactive) | 13.4 µM (inactive) | 15.8 µM (inactive) | 7.71 µM (inactive) | 6.43 µM (inactive) | 3.79 µM (inactive) | 11.7 µM (inactive)
Cc1cc(Nc2ccc(S(=O)(=O)O)c3cc(S(=O)(=O)O)cc(S(=O)(=O)O)c23)c2ccccc2n1 | > 100 µM (inactive) | > 100 µM (inactive) | > 100 µM (inactive) | > 100 | > 100 µM (inactive) | > 100 µM (inactive) | > 100 µM (inactive) | > 100 µM (inactive) | > 100 µM (inactive) | > 100 µM (inactive) | > 100 µM (inactive) | > 100 µM (inactive) | > 100 µM (inactive) | > 100 µM (inactive) | > 100 µM (inactive) | > 100 µM (inactive) | – | – | > 100 µM (inactive) | > 100 µM (inactive)
C/C(Cc1ccc2c(c1)OCO2)=N\N=c1\sc2ccccc2n1C | 58.7 µM (inactive) | > 100 µM (inactive) | > 100 µM (inactive) | 68.4 | > 100 µM (inactive) | > 100 µM (inactive) | > 100 µM (inactive) | > 100 µM (inactive) | > 100 µM (inactive) | > 100 µM (inactive) | 48.5 µM (inactive) | > 100 µM (inactive) | 72.9 µM (inactive) | 24.8 µM (inactive) | > 100 µM (inactive) | > 100 µM (inactive) | 92.5 µM (inactive) | – | > 100 µM (inactive) | > 100 µM (inactive)
Cn1c(=O)oc2cc(C(=S)N3CCCCC3)ccc21 | – | > 100 µM (inactive) | > 100 µM (inactive) | > 100 | > 100 µM (inactive) | > 100 µM (inactive) | > 100 µM (inactive) | > 100 µM (inactive) | > 100 µM (inactive) | > 100 µM (inactive) | > 100 µM (inactive) | – | > 100 µM (inactive) | > 100 µM (inactive) | > 100 µM (inactive) | > 100 µM (inactive) | 61.8 µM (inactive) | 68.4 µM (inactive) | – | > 100 µM (inactive)
O=C(NCCCl)Nc1cccnc1 | 35.7 µM (inactive) | 17.4 µM (inactive) | 29 µM (inactive) | 22.3 | 15.4 µM (inactive) | 8 µM (inactive) | – | 13.6 µM (inactive) | 34.4 µM (inactive) | 12.4 µM (inactive) | 13.8 µM (inactive) | 31.6 µM (inactive) | 41.3 µM (inactive) | 14.1 µM (inactive) | 21.5 µM (inactive) | 26.5 µM (inactive) | 33.7 µM (inactive) | – | 25.6 µM (inactive) | –
COc1ccc(Cc2nc3cc(C(F)(F)F)ccc3n2CCCN(C)C)cc1 | 15.7 µM (inactive) | 24 µM (inactive) | 19 µM (inactive) | 20 | 19.2 µM (inactive) | 17.1 µM (inactive) | 22.9 µM (inactive) | 28 µM (inactive) | 26 µM (inactive) | 30.6 µM (inactive) | – | 17.3 µM (inactive) | 17.9 µM (inactive) | 23.6 µM (inactive) | – | 17.3 µM (inactive) | 22 µM (inactive) | – | 14.8 µM (inactive) | 16.8 µM (inactive)
COc1cccc2c1C(=O)c1c(O)c3c(c(O)c1C2=O)C[C@](O)(C(=O)CO)CC3OC1CC(N)C(OC2CCCCO2)C(C)O1 (some centres undefined) | – | – | 1.05 µM (active) | 0.47 | – | 0.995 µM (active) | 0.293 µM (active) | 0.424 µM (active) | 0.212 µM (active) | 0.267 µM (active) | 0.0659 µM (active) | < 0.01 µM (active) | 0.0311 µM (active) | 0.916 µM (active) | 0.148 µM (active) | 0.828 µM (active) | < 0.0375 µM (active) | – | 0.356 µM (active) | 0.293 µM (active)
CCC1=CC2CN3CCc4c([nH]c5ccccc45)C(C(=O)OC)(C2)C13 (centres undefined) | – | – | 67.8 µM (inactive) | 44.2 | – | 54.8 µM (inactive) | 7.4 µM (inactive) | 47.3 µM (inactive) | 43.6 µM (inactive) | 11 µM (inactive) | 35.6 µM (inactive) | 47.6 µM (inactive) | 44.6 µM (inactive) | 36.7 µM (inactive) | 47.4 µM (inactive) | 42.8 µM (inactive) | 50.5 µM (inactive) | – | 45.7 µM (inactive) | 54.5 µM (inactive)
CC[C@@]1(O)C(=O)OCc2c1cc1n(c2=O)Cc2cc3c(CN(C)C)c(O)ccc3nc2-1 [TOPOTECAN HYDROCHLORIDE] | 0.00571 µM (active) | 2.25 µM (inactive) | – | 0.395 | – | 0.0834 µM (active) | 0.121 µM (active) | 0.141 µM (active) | 0.0125 µM (active) | – | 0.0408 µM (active) | 0.0475 µM (active) | 0.0149 µM (active) | 0.333 µM (active) | 0.0214 µM (active) | 0.24 µM (active) | 0.0125 µM (active) | – | 0.0306 µM (active) | 0.0147 µM (active)
Nc1ncnc2c(C3OC(CO)C(O)C3O)n[nH]c12 (centres undefined) | – | – | 0.0863 µM (active) | – | – | – | 0.59 µM (active) | 0.445 µM (active) | 0.0509 µM (active) | – | 0.0767 µM (active) | 0.428 µM (active) | 0.0698 µM (active) | 0.0646 µM (active) | 0.0652 µM (active) | – | – | – | 0.151 µM (active) | –
c1ccc(C(=NCCC2CNc3ccccc32)c2ccccc2)cc1 (centres undefined) | – | > 100 µM (inactive) | > 100 µM (inactive) | > 100 | > 100 µM (inactive) | > 100 µM (inactive) | > 100 µM (inactive) | 89.3 µM (inactive) | > 100 µM (inactive) | > 100 µM (inactive) | > 100 µM (inactive) | > 100 µM (inactive) | > 100 µM (inactive) | > 100 µM (inactive) | – | > 100 µM (inactive) | > 100 µM (inactive) | > 100 µM (inactive) | > 100 µM (inactive) | –
O=C1C2=Cc3ccccc3OC2(O)Oc2ccc(O)cc21 (centres undefined) | > 100 µM (inactive) | > 100 µM (inactive) | > 100 µM (inactive) | 38.6 | > 100 µM (inactive) | > 100 µM (inactive) | > 100 µM (inactive) | 56.4 µM (inactive) | 57.1 µM (inactive) | 69.5 µM (inactive) | > 100 µM (inactive) | 53.6 µM (inactive) | > 100 µM (inactive) | > 100 µM (inactive) | > 100 µM (inactive) | 36.7 µM (inactive) | 7.83 µM (inactive) | – | – | > 100 µM (inactive)
COC1OC(CO)C(O)C(OC(=O)c2cc(O)c(O)c(O)c2)C1OC(=O)c1cc(O)c(O)c(O)c1 (centres undefined) | – | > 100 µM (inactive) | > 100 µM (inactive) | 66.2 | > 100 µM (inactive) | 95.3 µM (inactive) | > 100 µM (inactive) | > 100 µM (inactive) | 91 µM (inactive) | > 100 µM (inactive) | 37.7 µM (inactive) | > 100 µM (inactive) | > 100 µM (inactive) | > 100 µM (inactive) | 61.9 µM (inactive) | > 100 µM (inactive) | 42.7 µM (inactive) | 53.7 µM (inactive) | 30.5 µM (inactive) | 59.4 µM (inactive)
CCOP(=O)(OCC)C(c1ccc(F)cc1)N(C(=O)NC(F)(F)F)c1ccc(F)cc1 (centres undefined) | – | > 100 µM (inactive) | – | > 100 | > 100 µM (inactive) | > 100 µM (inactive) | > 100 µM (inactive) | > 100 µM (inactive) | > 100 µM (inactive) | > 100 µM (inactive) | > 100 µM (inactive) | > 100 µM (inactive) | > 100 µM (inactive) | > 100 µM (inactive) | > 100 µM (inactive) | > 100 µM (inactive) | > 100 µM (inactive) | > 100 µM (inactive) | > 100 µM (inactive) | > 100 µM (inactive)
O=C(N/N=C\c1ccc([N+](=O)[O-])cc1)Nc1ccccc1 | > 100 µM (inactive) | – | > 100 µM (inactive) | > 100 | > 100 µM (inactive) | > 100 µM (inactive) | > 100 µM (inactive) | > 100 µM (inactive) | > 100 µM (inactive) | > 100 µM (inactive) | > 100 µM (inactive) | – | > 100 µM (inactive) | – | > 100 µM (inactive) | > 100 µM (inactive) | > 100 µM (inactive) | > 100 µM (inactive) | – | –
Cn1c(=O)c(-c2ccccc2)c(O)c2ccccc21 | – | > 100 µM (inactive) | – | > 100 | > 100 µM (inactive) | > 100 µM (inactive) | > 100 µM (inactive) | > 100 µM (inactive) | > 100 µM (inactive) | > 100 µM (inactive) | > 100 µM (inactive) | > 100 µM (inactive) | > 100 µM (inactive) | > 100 µM (inactive) | > 100 µM (inactive) | > 100 µM (inactive) | > 100 µM (inactive) | 42.5 µM (inactive) | > 100 µM (inactive) | > 100 µM (inactive)
